We go through 19 compounds from US4405619A, “Antiinflammatory substituted-1,2,4-triazolo[4,3-b]-1,2,4-triazines” (Diamond Shamrock Corporation, priority 1981, dated 1983).

Each structure is given as a SMILES string.

Assay [1] deals with carrageenin-induced edema. Kind of assay: Carrageenin-induced edema (antiinflammatory) assay, rat hind paw. It is filed as in vivo, rat (Long Evans strain, male). The settings on record: for inhibition in vivo at 200 mg/kg: 200 mg/kg oral; for ED50: 3 h, oral, dose which reduced edema formation by about 25% or more vs. mean control response in 50% of the animals. The procedure: The procedure employed is a modification of the method of Winter et al., Proc. Soc. Exptl. Biol. Med., 111:544 (1962). The device used for measurement of the paw volume is an adaptation of the water displacement procedure described by Adamkiewicz et al., Can. J. Biochem. Physiol., 33:332 (1955). Test compounds were administered orally, one hour prior to the intraplanter injection of 0.05 mL. of sterile 1.0% solution of carrageenin into the left hind paw of male rats (Long Evans strain) weighing between about 130-200 g. At peak swelling time (3 hrs.) the volume of edema was calculated by differential paw volumes.
Selected compounds of the invention were further tested to determine their ED50 values. The ED50 value is defined as that dose which reduced edema formation by about 25% or more compared with the mean control response (parallel run) in 50% of the animals. Typical results of these tests appear in Table II.

The subject of a further assay is phenylquinone writhing. In words: Phenylquinone writhing test (analgesic assay). It is filed as in vivo, mouse (Carworth CF1, male). The settings on record: for Phenylquinone Writhing Assay (% Control), percent analgesia, 15 min.: 15 min. after administration; for Phenylquinone Writhing Assay (% Control), percent analgesia, 30 min.: 30 min. after administration; for Phenylquinone Writhing Assay (% Control), percent analgesia, 60 min.: 60 min. after administration. The procedure: Phenylquinone writhing test was employed to evaluate analgesic activity for selected compounds for the present invention according to the following procedure:
Phenylquinone (phenyl-p-benzoquinone, No. 7104, Eastman Organic Chemicals) is made up as a 0.02% aqueous solution and 5% ethyl alcohol. Phenylquinone solutions are made up fresh twice daily. Standard reference agents and the test compounds are dissolved or suspended in a 0.25% methylcellulose solution. A control group consisting of 10 mice (Carworth CF1 male mice) are administered the 0.02% phenylquinone solution at a dose of 0.25 mL./mouse. The mice are housed individually and observed closely for 10 min. for exhibition of writhing. The onset of writhing occurs within 3 min. and 100% of the mice must writh within 10 min. Test compounds are administered orally to groups of 10 mice. The volume given is 0.01 mL. per gram of body weight. Activity can be studied at 15, 30, 60 and 120 min. after oral administration. After the designated time interval of a dose group has elapsed, the mice are challenged with phenylquinone intraperitoneally. Complete blocking of the writhing syndrome for the 10-min. observation period in any one mouse is considered a positive analgesic response for that mouse. Conversely, if any mouse wriths definitely once, it is considered not to be protected. The number of mice not writhing in a group multiplied by 10 equals percent analgesia for that dose at the time interval.

The mark [2] stands for this setting: Rattus norvegicus, 1 hour before carrageenin, edema at peak swelling time (3 hrs.), read-out: % Reduction of Edema.

With `Clc1cccc(-c2cnn3cnnc3n2)c1` [Example 28, 1,2,4-triazolo[4,3-b]-1,2,4-triazine, 7-(3'-chlorophenyl)], the inhibition in vivo at 200 mg/kg in assay [1] (setting [2]) amounted to 21%. As for `COCc1nnc2nc(-c3ccc(C)cc3)cnn12` [Example 8, 1,2,4-triazolo[4,3-b]-1,2,4-triazine, 3-methoxymethyl-7-(4'-methylphenyl)], in assay [1] (100 mg/kg oral, 1 hour before carrageenin, edema at peak swelling time (3 hrs.)), the “% Reduction of Edema” value turned out to be 16%. `CC(C)c1nnc2nc(-c3ccccc3)c(-c3ccccc3)nn12` [Example 23, 1,2,4-triazolo[4,3-b]-1,2,4-triazine, 3-isopropyl-5,6-diphenyl] returned an ED50 in assay [1] (Rattus norvegicus) of 30 mg/kg. Further, the inhibition in vivo at 200 mg/kg in assay [1] (setting [2]) was found to be 37%. The matching figures for `Cc1nnc2nc(-c3cccc(Cl)c3)cnn12` [Example 1, 1,2,4-triazolo[4,3-b]-1,2,4-triazine, 3-methyl-7-(3-chlorophenyl)]: 30 mg/kg and 39%. Take `CC(C)c1nnc2nc(-c3ccc(Cl)c(Cl)c3)cnn12` [Example 6, 1,2,4-triazolo[4,3-b]-1,2,4-triazine, 3-isopropyl-7-(3',4'-dichlorophenyl)]: the inhibition in vivo at 200 mg/kg in assay [1] (setting [2]) turned out to be 33%. The compound `Clc1ccc(-c2cnn3cnnc3n2)cc1Cl` [Example 7, 1,2,4-triazolo[4,3-b]-1,2,4-triazine, 7-(3',4'-dichlorophenyl)] displayed an ED50 in assay [1] (Rattus norvegicus) of 1 mg/kg. Also, in assay [1] (setting [2]), the inhibition in vivo at 200 mg/kg was 36%. In the assay on phenylquinone writhing (100 mg/kg oral), the “Phenylquinone Writhing Assay (% Control), percent analgesia, 15 min.” value is recorded as 30%; the “Phenylquinone Writhing Assay (% Control), percent analgesia, 30 min.” value is recorded as 50%; the “Phenylquinone Writhing Assay (% Control), percent analgesia, 60 min.” value was 30%. Regarding `Clc1ccccc1-c1cnn2cnnc2n1` [Example 36, 1,2,4-triazolo[4,3-b]-1,2,4-triazine, 7-(2'-chlorophenyl)], in assay [1] (setting [2]), the inhibition in vivo at 200 mg/kg is 65%. On the same count and under the same terms, the result for `c1ccc(-c2nc3nncn3nc2-c2ccccc2)cc1` [Example 22, 1,2,4-triazolo[4,3-b]-1,2,4-triazine, 6,7-diphenyl] reads 32%.

Take `CC(C)c1nnc2nc(-c3ccccc3)cnn12` [Example 4, 1,2,4-triazolo[4,3-b]-1,2,4-triazine, 3-isopropyl-7-phenyl]: in assay [1] (setting [2]), the inhibition in vivo at 200 mg/kg worked out at 18%. Moreover, in the assay with phenylquinone writhing (100 mg/kg oral), the “Phenylquinone Writhing Assay (% Control), percent analgesia, 15 min.” value is 10%; the “Phenylquinone Writhing Assay (% Control), percent analgesia, 30 min.” value came out at 20%; the “Phenylquinone Writhing Assay (% Control), percent analgesia, 60 min.” value is recorded as 20%. Consider `Oc1nnc2nc(-c3ccccc3)cnn12` [Example 3, 1,2,4-triazolo[4,3-b]-1,2,4-triazine, 3-hydroxy-7-phenyl], for which the inhibition in vivo at 200 mg/kg in assay [1] (setting [2]) was 22%.

As to `c1ccc(-c2cnn3cnnc3n2)cc1` [Example 13, 1,2,4-triazolo[4,3-b]-1,2,4-triazine, 7-phenyl], the inhibition in vivo at 175 mg/kg in assay [1] (Rattus norvegicus, 175 mg/kg oral, 1 hour before carrageenin, edema at peak swelling time (3 hrs.), read-out: % Reduction of Edema) came to 82%. Moreover, in the assay with phenylquinone writhing (50 mg/kg oral), the “Phenylquinone Writhing Assay (% Control), percent analgesia, 15 min.” value was determined as 20% and the “Phenylquinone Writhing Assay (% Control), percent analgesia, 30 min.” value is 20%. The compound `Clc1ccc(-c2cnn3cnnc3n2)cc1` [Example 10, 1,2,4-triazolo[4,3-b]-1,2,4-triazine, 7-(4'-chlorophenyl)] returned an ED50 in assay [1] (Rattus norvegicus) of 10 mg/kg. In assay [1] (setting [2]), the inhibition in vivo at 200 mg/kg was determined as 27%. `CCc1nnc2nc(-c3ccccc3)cnn12` [Example 5, 1,2,4-triazolo[4,3-b]-1,2,4-triazine, 3-ethyl-7-phenyl]: the 50% effect level in assay [1] (Rattus norvegicus) (ED50) was put at a dose of 100 mg/kg. Further, in assay [1] (setting [2]), the inhibition in vivo at 200 mg/kg stood at 40%. In the assay on phenylquinone writhing (100 mg/kg oral), the “Phenylquinone Writhing Assay (% Control), percent analgesia, 15 min.” value turned out to be 30%; the “Phenylquinone Writhing Assay (% Control), percent analgesia, 30 min.” value was found to be 30%; the “Phenylquinone Writhing Assay (% Control), percent analgesia, 60 min.” value came to 70%. `FC(F)(F)c1nnc2nc(-c3ccccc3)cnn12` [Example 15, 1,2,4-triazolo[4,3-b]-1,2,4-triazine, 3-trifluoromethyl-7-phenyl]: the inhibition in vivo at 200 mg/kg in assay [1] (setting [2]) worked out at 30%.

In the case of `Cc1nnc2nc(-c3ccccc3Cl)cnn12` [Example 26, 1,2,4-triazolo[4,3-b]-1,2,4-triazine, 3-methyl-7-(2'-chlorophenyl)], the inhibition in vivo at 200 mg/kg in assay [1] (setting [2]) was 56%. Still for that read-out and setting: with `Cc1nnc2nc(-c3ccccc3)c(-c3ccccc3)nn12` [Example 9, 1,2,4-triazolo[4,3-b]-1,2,4-triazine, 3-methyl-6,7-diphenyl] the figure was 35%; with `Cc1nnc2nc(-c3ccccc3)cnn12` [Example 12, 1,2,4-triazolo[4,3-b]-1,2,4-triazine, 3-methyl-7-phenyl], 70%; with `COCc1nnc2nc(-c3ccccc3)cnn12` [Example 2, 1,2,4-triazolo[4,3-b]-1,2,4-triazine, 3-methoxymethyl-7-phenyl], 26%. Still for that read-out and setting: with `Cc1nc2nnc(C)n2nc1C` [Example 25, 1,2,4-triazolo[4,3-b]-1,2,4-triazine, 3,6,7-trimethyl] the figure was 49%.
